14 compounds from PubChem BioAssay (NCI) can be followed below.

Some test systems named below: NCI/ADR-RES ovarian; IGROV1 ovarian; MOLT-4 leukemia; NCI-H23 lung; OVCAR-3 ovarian; UACC-62 melanoma; PC-3 prostate; MDA-MB-435; MALME-3M melanoma; HL-60(TB) leukemia.
Holding throughout (test): NCI anticancer screen, dose series, 48 h

Structures are written as SMILES.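 In this assay, cells in 96-well plates receive the compound at five concentrations for 48 hours. Endpoints are linearly interpolated between the surrounding concentrations. At the GI50, growth is halved. TGI is the concentration that stops growth completely.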

For `NNC(=O)Cn1c2ccc(Br)cc2c2nc3ccccc3nc21`, the TGI in the assay with NCI/ADR-RES ovarian, in the assay on IGROV1 ovarian, with MOLT-4 leukemia, in the assay with NCI-H23 lung, in the assay on OVCAR-3 ovarian and in the assay on UACC-62 melanoma was more than 100 µM each time. The TGI with PC-3 prostate and in the assay on MDA-MB-435 was more than 100 µM in each case.
For the compound `c1ccc2c(c1)CCc1c-2n(CCN2CCOCC2)c2ccccc12`, the TGI with NCI/ADR-RES ovarian is more than 100 µM; in the assay on IGROV1 ovarian it was more than 100 µM; with MALME-3M melanoma, 32.2 µM; in the assay on MOLT-4 leukemia it was more than 100 µM; in the assay with NCI-H23 lung it was more than 100 µM; in the assay with OVCAR-3 ovarian, more than 100 µM. In addition, the TGI in the assay with UACC-62 melanoma, in the assay on PC-3 prostate and in the assay on MDA-MB-435 was more than 100 µM in each case.
With `CC1(C)CC(=O)c2c(nc3ccc4ccccc4c3c2-c2ccc(NC(=O)CCCCCCCCC(=O)Nc3ccc(-c4c5c(nc6ccc7ccccc7c46)CC(C)(C)CC5=O)cc3)cc2)C1`, the TGI in the assay on NCI/ADR-RES ovarian, in the assay with IGROV1 ovarian, in the assay with HL-60(TB) leukemia, in the assay on MOLT-4 leukemia, with NCI-H23 lung and in the assay with OVCAR-3 ovarian was more than 100 µM throughout. In addition, the TGI in the assay with UACC-62 melanoma, in the assay with PC-3 prostate and with MDA-MB-435 was more than 100 µM each time.
Consider `C[C@@H]1CC[C@H]2C(C(O)CCCCC(O)C3=C(C(F)(F)F)O[C@@H]4O[C@@]5(C)CC[C@H]6[C@H](C)CC[C@@H]3[C@@]46OO5)=C(C(F)(F)F)O[C@@H]3O[C@@]4(C)CC[C@@H]1[C@]32OO4` (some centres not stated), for which the GI50 is 15.6 µM in the assay with IGROV1 ovarian; 44.7 µM in the assay on MALME-3M melanoma; 6.44 µM in the assay on HL-60(TB) leukemia; 6.35 µM in the assay on MOLT-4 leukemia; 7.26 µM in the assay with OVCAR-3 ovarian; 8.13 µM in the assay on UACC-62 melanoma. Besides, the GI50 with PC-3 prostate is 3.96 µM; with MDA-MB-435, 10.5 µM. Moreover, the TGI in the assay on IGROV1 ovarian, in the assay on MALME-3M melanoma, with HL-60(TB) leukemia, with MOLT-4 leukemia, in the assay on OVCAR-3 ovarian and with UACC-62 melanoma was more than 100 µM each time. Moreover, the TGI in the assay on PC-3 prostate and with MDA-MB-435 was more than 100 µM throughout.
For the compound `COc1ccc(-n2c(=O)n(C)c(=O)n2-c2ccc(OC)cc2)cc1`, the TGI with NCI/ADR-RES ovarian, in the assay on IGROV1 ovarian, in the assay with HL-60(TB) leukemia, in the assay with MOLT-4 leukemia, in the assay on NCI-H23 lung and in the assay on OVCAR-3 ovarian was more than 100 µM in each case. In addition, the TGI with UACC-62 melanoma, in the assay with PC-3 prostate and in the assay on MDA-MB-435 was more than 100 µM in each case.
As to `CSc1n[nH]c(N)c1C(=O)Nc1ccc(C)cc1`, the TGI in the assay on MALME-3M melanoma, with HL-60(TB) leukemia, with MOLT-4 leukemia, in the assay with NCI-H23 lung, in the assay on OVCAR-3 ovarian and in the assay with UACC-62 melanoma was more than 100 µM in each case. The TGI in the assay on PC-3 prostate and in the assay on MDA-MB-435 was more than 100 µM in each case.
`COc1ccc2nc3cc([N+](=O)[O-])ccc3c(Nc3ccc(S(=O)(=O)NC(C)=O)cc3)c2c1`: the TGI in the assay with MALME-3M melanoma, with HL-60(TB) leukemia, with MOLT-4 leukemia, with NCI-H23 lung, in the assay with OVCAR-3 ovarian and with UACC-62 melanoma was more than 100 µM throughout. For the same compound, the TGI in the assay on PC-3 prostate and in the assay on MDA-MB-435 was more than 100 µM each time.
With `CC[N+]1(C)CCC(O)(c2ccc(Cl)c(Cl)c2)C(C(=O)c2ccc(Cl)c(Cl)c2)C1` (configuration not stated), the TGI in the assay on NCI/ADR-RES ovarian, in the assay on IGROV1 ovarian, with MALME-3M melanoma, in the assay on HL-60(TB) leukemia, in the assay with MOLT-4 leukemia and in the assay with NCI-H23 lung was more than 10 µM throughout. In addition, the TGI in the assay on OVCAR-3 ovarian and with PC-3 prostate was more than 10 µM each time.
For the compound `CN(C)c1nc2oc(-c3ccccc3)c(-c3ccccc3)c2c2nnnn12`, the TGI in the assay on NCI/ADR-RES ovarian was more than 100 µM; in the assay with IGROV1 ovarian, more than 100 µM; in the assay with HL-60(TB) leukemia, 96.2 µM; with MOLT-4 leukemia it was more than 100 µM; in the assay with NCI-H23 lung, more than 100 µM; in the assay on UACC-62 melanoma, more than 100 µM. The compound further had a TGI with MDA-MB-435 of more than 100 µM.
Take `CCOC(=O)C(NC(=O)CC)(Nc1cc(C)on1)C(F)(F)F` (configuration not stated): the TGI with NCI/ADR-RES ovarian, in the assay on IGROV1 ovarian, with HL-60(TB) leukemia, in the assay with MOLT-4 leukemia, in the assay with NCI-H23 lung and with PC-3 prostate was more than 100 µM in each case. Besides, in the assay on MDA-MB-435, the TGI was more than 100 µM.
On to `COc1ccc(/C=C2\S/C(=N/Nc3nc(-c4ccccc4)cs3)NC2=O)cc1OC`, for which the TGI with NCI/ADR-RES ovarian was 49.8 µM; in the assay on IGROV1 ovarian, 44.2 µM; in the assay on HL-60(TB) leukemia it was 22 µM; with MOLT-4 leukemia it was 20.6 µM; in the assay on NCI-H23 lung, 69.4 µM; with OVCAR-3 ovarian, 55.8 µM. Moreover, the TGI is 74.5 µM with UACC-62 melanoma, 52.6 µM with PC-3 prostate and 75 µM with MDA-MB-435.
For `CC1(c2ccc[n+](Cc3ccccc3)c2)OCCO1`, the TGI with IGROV1 ovarian, in the assay with MALME-3M melanoma, in the assay with HL-60(TB) leukemia, in the assay on MOLT-4 leukemia, with NCI-H23 lung and in the assay on OVCAR-3 ovarian was more than 100 µM throughout. In the assay on UACC-62 melanoma, this compound yielded a TGI of more than 100 µM.
For `COc1cc(/C=C2/C[C@H]3[C@@H]4CC=C5C[C@@H](OC(C)=O)CC[C@]5(C)[C@H]4CC[C@]3(C)NC2=O)cc(OC)c1OC`, the TGI is 54.4 µM in the assay with NCI/ADR-RES ovarian; 69.6 µM in the assay with IGROV1 ovarian; 60.3 µM in the assay on MALME-3M melanoma; 91.4 µM in the assay on MOLT-4 leukemia; 67 µM in the assay on NCI-H23 lung; more than 100 µM with OVCAR-3 ovarian. Besides, the TGI was 47 µM in the assay with UACC-62 melanoma, 44.3 µM in the assay on PC-3 prostate and more than 100 µM in the assay with MDA-MB-435.
`CCOP(=O)(OCC)C1CC(n2cc(C)c(=O)[nH]c2=O)OC1CO` (configuration not stated): the TGI in the assay on IGROV1 ovarian, in the assay on MALME-3M melanoma, with HL-60(TB) leukemia, with MOLT-4 leukemia, with NCI-H23 lung and with OVCAR-3 ovarian was more than 100 µM each time. For the same compound, the TGI in the assay with UACC-62 melanoma and with PC-3 prostate was more than 100 µM each time.
